Like-named read-outs stand apart in the source and are kept apart here. Blank lines part the entries; values can stand above or below the compound they belong to.
Assays:
CB1 [1] = target: T1, CB1 (Homo sapiens, UniProt P21554); experiment: CB1 activated Gαq16-coupled intracellular calcium mobilization assay in CHO-K1 cells (apparent affinity Ke); format: cell-based; settings: calcium mobilization
T1 construct: expressed in transfected cells; host or cells: CHO-K1 (membranes)

CB2 = target: T2, CB2 (Homo sapiens, UniProt P34972); experiment: Displacement of [3H]CP55940 in membranes of CHO-K1 cells over-expressing CB2; format: binding
T2 construct: expressed in transfected cells; host or cells: CHO-K1 (membranes)
T2 sequence (P34972 whole entry): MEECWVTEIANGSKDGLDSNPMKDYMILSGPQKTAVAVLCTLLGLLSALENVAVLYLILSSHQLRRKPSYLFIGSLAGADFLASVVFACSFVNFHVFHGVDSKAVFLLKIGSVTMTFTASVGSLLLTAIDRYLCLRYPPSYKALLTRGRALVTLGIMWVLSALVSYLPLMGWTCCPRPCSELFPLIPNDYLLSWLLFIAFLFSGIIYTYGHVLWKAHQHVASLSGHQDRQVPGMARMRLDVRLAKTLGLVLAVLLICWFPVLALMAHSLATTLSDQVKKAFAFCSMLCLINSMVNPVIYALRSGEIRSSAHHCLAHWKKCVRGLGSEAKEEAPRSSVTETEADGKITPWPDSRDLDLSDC
Experimental: All compounds were characterized by H^1 NMR and evaluated using a calcium mobilization assay. Each compound was pharmacologically characterized using a functional fluorescent CB1 activated Gαq16-coupled intracellular calcium mobilization assay in CHO-K1 cells as has been previously described and apparent affinity (Ke) values were determined. See Zhang et al., J. Med. Chem. 2010, 53, 7048, which is incorporated herein by reference. Further characterization of select compounds was performed using radioligand displacement of [3H]1 and equilibrium dissociation constant (Ki) values were determined. Selectivity of these compounds at CB1 versus CB2 was also determined by obtaining Ki values at either receptor using displacement of [3H]CP55940 in membranes of CHO-K1 cells over-expressing either receptor. Data reported are average values from 3-6 measurements.
Select compounds were chosen for further study in radioligand displacement assays using radiolabeled rimonobant, SR141716 ([^3H]1). […] Selectivity against the CB2 receptor was determined by comparing the compound displacement of radiolabeled CP55940, which is a cannabinoid known to act as a full agonist at both CB1 and CB2 receptors. In general, tested compounds were selective for CB1 over CB2.

CB1 [2] = target: T1, CB1; experiment: Displacement of [3H]CP55940 in membranes of CHO-K1 cells over-expressing CB1; format: binding; settings: for Binding Selectivity using CP55940 Displacement: CB2 Ki over CB1 Ki; for Ki: read-out: Ki (nM) v. [3H] CP55940 at CB1
[3] = Table 2, apparent affinity, read-out: Ke CB1
[4] = Table 5, read-out: Ke (nM) at CB1
[5] = Table 5, read-out: Ki (nM) v. [3H] CP55940 at CB2
[6] = Table 4, read-out: Ki (nM) v. [3H] CP55940 at CB2
[7] = Table 4, read-out: Ke (nM) at CB1

T1 sequence (P21554 whole entry): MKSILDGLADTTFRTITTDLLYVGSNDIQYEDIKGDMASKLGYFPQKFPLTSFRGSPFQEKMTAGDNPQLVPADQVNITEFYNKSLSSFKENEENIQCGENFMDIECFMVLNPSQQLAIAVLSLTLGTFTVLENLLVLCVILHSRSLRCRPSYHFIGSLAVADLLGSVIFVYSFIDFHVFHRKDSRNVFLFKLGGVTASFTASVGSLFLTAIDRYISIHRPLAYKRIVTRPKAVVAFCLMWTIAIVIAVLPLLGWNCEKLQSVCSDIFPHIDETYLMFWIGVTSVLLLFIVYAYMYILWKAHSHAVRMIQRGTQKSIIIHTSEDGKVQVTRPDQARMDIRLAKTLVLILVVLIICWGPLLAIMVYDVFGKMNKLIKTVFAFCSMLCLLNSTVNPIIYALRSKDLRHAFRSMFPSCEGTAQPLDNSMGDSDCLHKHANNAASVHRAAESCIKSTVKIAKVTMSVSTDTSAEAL

Compound: Cc1c(C(=O)N[C@H]2CC[C@H](NS(N)(=O)=O)CC2)nn(-c2ccc(Cl)cc2Cl)c1-c1ccc(Cl)cc1 [5-(4-chlorophenyl)-1-(2,4-dichlorophenyl)-4-methyl-N-[(1r,4r)-4-(sulfamoylamino)cyclohexyl]-1H-pyrazole-3-carboxamide]
Kb (CB1 [1]; [3]): 9430 nM

Compound: Cc1c(C(=O)N[C@H]2CC[C@H](NS(C)(=O)=O)CC2)nn(-c2ccc(Cl)cc2Cl)c1-c1ccc(Cl)cc1 [5-(4-chlorophenyl)-1-(2,4-dichlorophenyl)-4-methyl-N-[(1r,4r)-4-methanesulfonamido-cyclohexyl]-1H-pyrazole-3-carboxamide]
Kb (CB1 [1]; [3]): >10000 nM

Compound: Cc1c(C(=O)NCc2ccc(CNS(N)(=O)=O)cc2)nn(-c2ccc(Cl)cc2Cl)c1-c1ccc(Cl)cc1 [5-(4-chlorophenyl)-1-(2,4-dichlorophenyl)-4-methyl-N-({4-[(sulfamoylamino)methyl]phenyl}methyl)-1H-pyrazole-3-carboxamide]
Kb (CB1 [1]; [3]): 376 nM

Compound: Cc1c(C(=O)NCC2CCC(CNS(N)(=O)=O)CC2)nn(-c2ccc(Cl)cc2Cl)c1-c1ccc(Cl)cc1 (mixture of isomers)
Ki (CB2; Table 3, radioligand [3H]CP55940, read-out: Ki(μM) CB2 CP55940): 1.79 µM

Compound: CCCCOC(=O)N1CCC(NC(=O)c2nn(-c3ccc(Cl)cc3Cl)c(-c3ccc(Cl)cc3)c2C)CC1 [OC4H9, Butyl 4-[5-(4-chlorophenyl)-1-(2,4-dichlorophenyl)-4-methyl-1H-pyrazole-3-amido]piperidine-1-carboxylate]
Kb (CB1 [1]; [4]): 88 nM

Compound: 4-C-5-(4-Chlorophenyl)-1-(2,4-dichlorophenyl)-4-methyl-1H-pyrazole-3-1-N-propylpiperidine-1,4-diamido [NH(n-propyl)]
Kb (CB1 [1]; [4]): 66.5 nM

Compound: Cc1c(C(=O)NCCCCCCCNS(N)(=O)=O)nn(-c2ccc(Cl)cc2Cl)c1-c1ccc(Cl)cc1 [5-(4-chlorophenyl)-1-(2,4-dichlorophenyl)-4-methyl-N-[7-(sulfamoylamino)heptyl]-1H-pyrazole-3-carboxamide]
Kb (CB1 [1]; [3]): 304 nM

Compound: CCCCNC(=O)NC1CCN(C(=O)c2nn(-c3ccc(Cl)cc3Cl)c(-c3ccc(Cl)cc3)c2C)CC1 [Cl, H, NHC(O)NHC4H9, 3-Butyl-1-(1-{[5-(4-chlorophenyl)-1-(2,4-dichlorophenyl)-4-methyl-1H-pyrazol-3-yl]carbonyl}piperidin-4-yl)urea]
Kb (CB1 [1]; [7]): 395 nM

Compound: Cc1c(C(=O)NCc2ccc(CNS(C)(=O)=O)cc2)nn(-c2ccc(Cl)cc2Cl)c1-c1ccc(Cl)cc1 [5-(4-chlorophenyl)-1-(2,4-dichlorophenyl)-N-{[4-(methanesulfonamidomethyl)phenyl]methyl}-4-methyl-1H-pyrazole-3-carboxamide]
Kb (CB1 [1]; [3]): 2930 nM

Compound: Cc1c(C(=O)N2CCC(N)CC2)nn(-c2ccc(Cl)cc2Cl)c1-c1ccc(Cl)cc1 [Cl, H, NH2, 1-{[5-(4-Chlorophenyl)-1-(2,4-dichlorophenyl)-4-methyl-1H-pyrazol-3-yl]carbonyl}piperidin-4-amine]
Kb (CB1 [1]; [7]): 1920 nM

Compound: Cc1c(C(=O)NCCCN(C)CCCNS(C)(=O)=O)nn(-c2ccc(Cl)cc2Cl)c1-c1ccc(Cl)cc1 [5-(4-chlorophenyl)-1-(2,4-dichlorophenyl)-N-{3-[(3-methanesulfonamidopropyl)(methyl)amino]propyl}-4-methyl-1H-pyrazole-3-carboxamide]
Kb (CB1 [1]; [3]): 5340 nM

Compound: Cc1c(C(=O)NCc2cccc(CNS(C)(=O)=O)c2)nn(-c2ccc(Cl)cc2Cl)c1-c1ccc(Cl)cc1 [5-(4-chlorophenyl)-1-(2,4-dichlorophenyl)-N-{[3-(methanesulfonamidomethyl)phenyl]methyl}-4-methyl-1H-pyrazole-3-carboxamide]
Kb (CB1 [1]; [3]): 2830 nM

Compound: Cc1c(C(=O)N2CCC(NC(=O)NC(C)C)CC2)nn(-c2ccc(Cl)cc2Cl)c1-c1ccc(Cl)cc1 [Cl, H, NHC(O)NHCH(CH3)2, 1-(1-{[5-(4-Chlorophenyl)-1-(2,4-dichlorophenyl)-4-methyl-1H-pyrazol-3-yl]carbonyl}piperidin-4-yl)-3-(propan-2-yl)urea]
Kb (CB1 [1]; [7]): 608 nM

Compound: Cc1c(C(=O)NCc2cccc(CNS(N)(=O)=O)c2)nn(-c2ccc(Cl)cc2Cl)c1-c1ccc(Cl)cc1 [5-(4-chlorophenyl)-1-(2,4-dichlorophenyl)-4-methyl-N-({3-[(sulfamoylamino)methyl]phenyl}methyl)-1H-pyrazole-3-carboxamide]
Kb (CB1 [1]; [3]): 4200 nM

Compound: CCCNC(=O)NC1CCN(C(=O)c2nn(-c3ccc(Cl)cc3Cl)c(-c3ccc(Cl)cc3)c2C)CC1 [Cl, H, NHC(O)NHC3H7, 1-(1-{[5-(4-Chlorophenyl)-1-(2,4-dichlorophenyl)-4-methyl-1H-pyrazol-3-yl]carbonyl}piperidin-4-yl)-3-propylurea]
Kb (CB1 [1]; [7]): 546 nM

Compound: Cc1c(C(=O)N2CCC(O)(c3ccccc3)CC2)nn(-c2ccc(Cl)cc2Cl)c1-c1ccc(C#N)cc1 [CN, phenyl, OH, 4-[1-(2,4-dichlorophenyl)-3-[(4-hydroxy-4-phenylpiperidin-1-yl)carbonyl]-4-methyl-1H-pyrazol-5-yl]benzonitrile]
Kb (CB1 [1]; [7]): 907 nM

Continued, values first:

Kb (CB1 [1]; [4]): 4100 nM
Compound: Cc1c(C(=O)NC2CCN(C(N)=O)CC2)nn(-c2ccc(Cl)cc2Cl)c1-c1ccc(Cl)cc1 [NH2, 4-C-5-(4-chlorophenyl)-1-(2,4-dichlorophenyl)-4-methyl-1H-pyrazole-3-piperidine-1,4-diamido]

Binding Selectivity using CP55940 Displacement (CB1 [2]; Table 5): 79.0 | Ki (CB1 [2]; Table 5): 167 nM | Ki (CB2; [5]): 13.2 µM
Compound: CCNC(=O)N1CCC(NC(=O)c2nn(-c3ccc(Cl)cc3Cl)c(-c3ccc(Cl)cc3)c2C)CC1 [NHC2H5, 4-C-5-(4-chlorophenyl)-1-(2,4-dichlorophenyl)-4-methyl-1H-pyrazole-3-1-N-ethylpiperidine-1,4-diamido]

Binding Selectivity using CP55940 Displacement (CB1 [2]; Table 4): 62.2 | Ki (CB1 [2]; Table 4): 38.8 nM | Ki (CB2; [6]): 2.41 µM
Compound: CCCCCCNC(=O)NC1(c2ccccc2)CCN(C(=O)c2nn(-c3ccc(Cl)cc3Cl)c(-c3ccc(Cl)cc3)c2C)CC1 [Cl, phenyl, NHC(O)NH(C6H13), 1-(1-{[5-(4-chlorophenyl)-1-(2,4-dichlorophenyl)-4-methyl-1H-pyrazol-3-yl]carbonyl}-4-phenylpiperidin-4-yl)-3-hexylurea]

Binding Selectivity using CP55940 Displacement (CB1 [2]; Table 5): 175.7 | Ki (CB1 [2]; Table 5): 97.9 nM | Ki (CB2; [5]): 17.2 µM
Compound: Cc1c(C(=O)NC2CCN(C(=O)NC(C)C)CC2)nn(-c2ccc(Cl)cc2Cl)c1-c1ccc(Cl)cc1 [NH(isopropyl), 4-C-5-(4-Chlorophenyl)-1-(2,4-dichlorophenyl)-4-methyl-1H-pyrazole-3-1-N-(propan-2-yl)piperidine-1,4-diamido]

Binding Selectivity using CP55940 Displacement (CB1 [2]; Table 4): 12.1 | Ki (CB1 [2]; Table 4): 15 nM | Ki (CB2; [6]): 0.182 µM
Compound: CCNC(=O)NC1(c2ccccc2)CCN(C(=O)c2nn(-c3ccc(Cl)cc3Cl)c(-c3ccc(Cl)cc3)c2C)CC1 [Cl, phenyl, NHC(O)NHCH2CH3, 1-(1-{[5-(4-chlorophenyl)-1-(2,4-dichlorophenyl)-4-methyl-1H-pyrazol-3-yl]carbonyl}-4-phenylpiperidin-4-yl)-3-ethylurea]

Kb (CB1 [1]; [7]): 209 nM
Compound: Cc1c(C(=O)N2CCC(NC(=O)OC(C)(C)C)CC2)nn(-c2ccc(Cl)cc2Cl)c1-c1ccc(Cl)cc1 [Cl, H, NHC(O)O(t-butyl), tert-Butyl N-(1-{[5-(4-chlorophenyl)-1-(2,4-dichlorophenyl)-4-methyl-1H-pyrazol-3-yl]carbonyl}piperidin-4-yl)carbamate]

Binding Selectivity using CP55940 Displacement (CB1 [2]; Table 4): 38.7 | Ki (CB1 [2]; Table 4): 7.57 nM | Ki (CB2; [6]): 0.293 µM
Compound: CCCNC(=O)NC1(c2ccccc2)CCN(C(=O)c2nn(-c3ccc(Cl)cc3Cl)c(-c3ccc(Cl)cc3)c2C)CC1 [Cl, phenyl, NHC(O)NHC3H7, 1-(1-{[5-(4-chlorophenyl)-1-(2,4-dichlorophenyl)-4-methyl-1H-pyrazol-3-yl]carbonyl}-4-phenylpiperidin-4-yl)-3-propylurea]

Ki (CB1 [2]; Table 5): 149 nM | Ki (CB2; [5]): > 20 µM
Compound: CCCCNC(=O)N1CCC(NC(=O)c2nn(-c3ccc(Cl)cc3Cl)c(-c3ccc(Cl)cc3)c2C)CC1 [NH(n-butyl), 1-N-Butyl-4-C-5-(4-chlorophenyl)-1-(2,4-dichlorophenyl)-4-methyl-1H-pyrazole-3-piperidine-1,4-diamido]

Kb (CB1 [1]; [7]): 146 nM
Compound: Cc1c(C(=O)N2CCC(NS(C)(=O)=O)CC2)nn(-c2ccc(Cl)cc2Cl)c1-c1ccc(Cl)cc1 [Cl, H, NHS(O)2CH3, N-(1-{[5-(4-Chlorophenyl)-1-(2,4-dichlorophenyl)-4-methyl-1H-pyrazol-3-yl]carbonyl}piperidin-4-yl)methanesulfonamide]

Binding Selectivity using CP55940 Displacement (CB1 [2]; Table 4): 25.3 | Ki (CB1 [2]; Table 4): 792 nM | Ki (CB2; [6]): ≥ 20 µM
Compound: Cc1c(C(=O)N2CCC(NC(=O)NC3CCCCC3)(c3ccccc3)CC2)nn(-c2ccc(Cl)cc2Cl)c1-c1ccc(Cl)cc1 [Cl, phenyl, NHC(O)NH(cyclohexyl), 3-(1-{[5-(4-chlorophenyl)-1-(2,4-dichlorophenyl)-4-methyl-1H-pyrazol-3-yl]carbonyl}-4-phenylpiperidin-4-yl)-1-cyclohexylurea]
